These results are taken from ChEMBL document CHEMBL1139753, “Synthesis, in vitro and in vivo cytotoxicity of 6,7-diaryl-2,3,8,8a-tetrahydroindolizin-5(1H)-ones” (Bioorg Med Chem Lett, 2007).

This test relates to HCT-116. Briefly: Cytotoxicity against HCT116 cells after 48 hrs. Type of test: functional, cell-based. Conditions: Homo sapiens, HCT-116, 48 h.

SMILES strings stand for the structures.

For the compound `COc1ccc(C2=C(c3ccc(OC)cc3)C(=O)N3CCCC3C2)cc1` (stereo not given), the IC50 (commonly the concentration that gives 50% inhibition) was found to be 3.2 µM. That is a single-digit micromolar value.

In turn, `COc1ccc(C2=C(c3ccc(C)cc3)C(=O)N3CCCC3C2)cc1` (stereo not given) showed an IC50 of 10 µM. Compared with the last compound, the IC50 is about 3.1-fold higher. As for `COc1ccc(C2=C(c3cccc(Cl)c3)C(=O)N3CCCC3C2)cc1` (stereo not given), half-maximal inhibition (IC50) required 8 µM. The compound `COc1ccc(C2=C(c3ccc(N=[N+]=[N-])cc3)C(=O)N3CCCC3C2)cc1` (stereo not given) registered an IC50 of 25 µM.

In turn, `O=C1C(c2ccccc2)=C(c2ccc(OCc3ccccc3)cc2)CC2CCCN12` (stereo not given) showed an IC50 of 8.9 µM. This IC50 lies about 2.8-fold lower than the previous one. The figure for `COc1ccc(C2=C(c3ccc(OC)c(OC)c3)C(=O)N3CCCC3C2)cc1` (stereo not given) is 5 µM; for `COc1ccc(C2=C(c3ccc(OC)c(OC)c3)C(=O)N3CCCC3C2)cc1OC` (stereo not given) it is more than 10 µM. The figure for `O=C1N[C@H]2[C@H](CS[C@H]2CCCCC(=O)OC(=O)CCCCCNOc2ccc(C3=C(c4ccccc4)C(=O)N4CCCC4C3)cc2)N1` (stereo not given in full) is 17 µM. Next, `COc1ccc(C2=C(c3ccccc3)C(=O)N3CCCC3C2)cc1` (stereo not given): 0.39 µM; `COc1ccc(C2=C(c3ccccc3Cl)C(=O)N3CCCC3C2)cc1` (stereo not given): 8 µM. Take `O=C1C(c2ccccc2)=C(c2ccc(O)cc2)CC2CCCN12` (stereo not given): half-maximal inhibition (IC50) required 9 µM. Next, `COc1ccc(C2=C(c3ccc(Cl)cc3)C(=O)N3CCCC3C2)cc1` (stereo not given): 13 µM. In the case of `COc1ccc(C2=C(c3cccc(N)c3)C(=O)N3CCCC3C2)cc1` (stereo not given), the IC50 is more than 25 µM.

`COc1ccc(C2=C(c3cc(OC)c(OC)c(OCc4ccccc4)c3)CC3CCCN3C2=O)cc1OC` (stereo not given) came in with an IC50 of 3.3 µM.

Regarding `COc1ccc(C2=C(c3ccc(Cl)c(Cl)c3)C(=O)N3CCCC3C2)cc1` (stereo not given), 4 µM corresponded to half-maximal inhibition (IC50). The IC50 values of the last two compounds are within 1.5-fold of each other.
